From patent US11866430B2, “Naphthyridinone compounds useful as T cell activators” (priority 2018, dated 2024)
Like-named read-outs stand apart in the source and are kept apart here.

Key:
[1] = tested on: pre-activated CD4 T cells and Raji cells; assay: Raji CD4 T Cell IL2 Assay; type: cell-based
human DGKζ = human DGKζ (Homo sapiens (Human), UniProt Q13574); assay: DGKζ assay (detergent/lipid micelle substrate); type: biochemical; conditions: detergent/lipid micelle substrate; read-out: DGKζ IC50
How it was run: (§1)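 Full-length human DGKζ (and DGKα), C-terminal His-tagged, Sf9-expressed, with phosphatidylserine/DAG micelles in 50 mM octyl glucoside; buffer 50 mM MOPS pH 7.5, 100 mM NaCl, 10 mM MgCl2, 1 μM CaCl2, 1 mM DTT.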

human DGKα = human DGKα (Homo sapiens (Human), UniProt P23743); assay: biochemical; conditions: detergent/lipid micelle substrate; read-out: DGKα IC50
How it was run: as §1

Chain of human DGKα (P23743 other isoform, or with tags, fused parts or gaps): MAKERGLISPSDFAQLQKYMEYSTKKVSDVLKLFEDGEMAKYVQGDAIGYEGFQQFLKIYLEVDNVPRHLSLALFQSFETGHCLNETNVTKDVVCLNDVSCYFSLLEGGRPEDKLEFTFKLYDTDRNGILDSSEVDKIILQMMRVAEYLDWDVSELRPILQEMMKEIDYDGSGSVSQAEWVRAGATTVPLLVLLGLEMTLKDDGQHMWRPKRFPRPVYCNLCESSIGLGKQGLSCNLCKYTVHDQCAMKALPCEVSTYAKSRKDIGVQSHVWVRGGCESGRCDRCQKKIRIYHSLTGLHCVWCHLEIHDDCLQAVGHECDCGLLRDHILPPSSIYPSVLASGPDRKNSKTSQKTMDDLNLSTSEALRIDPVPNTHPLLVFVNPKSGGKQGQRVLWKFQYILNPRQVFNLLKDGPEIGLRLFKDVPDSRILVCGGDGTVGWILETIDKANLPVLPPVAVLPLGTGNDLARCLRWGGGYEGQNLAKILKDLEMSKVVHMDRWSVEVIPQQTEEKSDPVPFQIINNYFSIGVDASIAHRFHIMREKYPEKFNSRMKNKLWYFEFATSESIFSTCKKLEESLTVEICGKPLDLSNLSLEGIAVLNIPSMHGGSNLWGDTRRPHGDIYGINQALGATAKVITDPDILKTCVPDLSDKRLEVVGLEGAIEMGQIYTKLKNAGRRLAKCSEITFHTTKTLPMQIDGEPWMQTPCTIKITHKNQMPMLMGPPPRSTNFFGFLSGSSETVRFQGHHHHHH
Chain of human DGKζ (Q13574 other isoform, or with tags, fused parts or gaps): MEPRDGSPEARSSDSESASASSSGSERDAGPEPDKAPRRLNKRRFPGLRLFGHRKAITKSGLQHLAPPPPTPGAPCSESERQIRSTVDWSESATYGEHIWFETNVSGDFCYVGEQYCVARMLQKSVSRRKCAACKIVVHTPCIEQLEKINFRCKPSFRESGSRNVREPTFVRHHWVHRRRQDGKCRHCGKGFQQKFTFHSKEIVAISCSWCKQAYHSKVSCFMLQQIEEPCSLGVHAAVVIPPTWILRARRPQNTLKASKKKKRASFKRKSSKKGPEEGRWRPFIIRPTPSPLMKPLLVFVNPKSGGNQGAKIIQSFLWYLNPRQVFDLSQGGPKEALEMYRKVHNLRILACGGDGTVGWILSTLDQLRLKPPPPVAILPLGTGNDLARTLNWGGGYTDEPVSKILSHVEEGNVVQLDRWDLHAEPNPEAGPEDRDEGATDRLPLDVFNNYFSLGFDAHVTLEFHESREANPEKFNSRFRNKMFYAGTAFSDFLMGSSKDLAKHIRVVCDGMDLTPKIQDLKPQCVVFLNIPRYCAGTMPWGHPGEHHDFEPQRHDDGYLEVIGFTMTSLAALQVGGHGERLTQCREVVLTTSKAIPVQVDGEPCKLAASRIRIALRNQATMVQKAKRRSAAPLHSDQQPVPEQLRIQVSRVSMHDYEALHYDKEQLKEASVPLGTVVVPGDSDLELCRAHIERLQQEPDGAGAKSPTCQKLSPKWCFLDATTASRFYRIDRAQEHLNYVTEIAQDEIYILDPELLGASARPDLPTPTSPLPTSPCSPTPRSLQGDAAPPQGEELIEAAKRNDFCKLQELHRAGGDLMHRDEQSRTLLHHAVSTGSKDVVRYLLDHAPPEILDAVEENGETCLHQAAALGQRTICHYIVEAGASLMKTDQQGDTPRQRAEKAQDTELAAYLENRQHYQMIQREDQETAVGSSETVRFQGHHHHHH

Structure (SMILES) | IC50 [1] [nM] | IC50 (human DGKζ) [nM] | IC50 (human DGKα) [nM] | IC50 ([1]; Homo sapiens, Raji) [nM]
Cn1c(=O)c([N+](=O)[O-])c(N2CCN(C(c3ccc(F)cc3)c3ccccc3O)CC2)c2nc(C#N)ccc21 (single isomer, unassigned) [Example 98, 8-(4-((4-fluorophenyl)(2-hydroxyphenyl)methyl)piperazin-1-yl)-5-methyl-7-nitro-6-oxo-5,6-dihydro-1,5-naphthyridine-2-carbonitrile] | 130 | 4400 | 6700 | –
CCn1ccc2c(CN3CCN(c4c(C#N)c(=O)n(C)c5ccc(Cl)nc45)CC3)cccc21 [Example 220, 6-chloro-4-(4-((1-ethyl-1H-indol-4-yl)methyl)piperazin-1-yl)-1-methyl-2-oxo-1,2-dihydro-1,5-naphthyridine-3-carbonitrile] | – | 89000 | 1700 | 63
Cn1c(=O)c(C#N)c(N2CCN(Cc3ccccc3F)CC2)c2nc(Br)ccc21 [Example 344, 6-bromo-4-{4-[(2-fluorophenyl)methyl]piperazin-1-yl}-1-methyl-2-oxo-1,2-dihydro-1,5-naphthyridine-3-carbonitrile] | – | > 240000 | 400 | 820
COc1cccc(C)c1C(c1ccc(F)cc1)N1CCN(c2c([N+](=O)[O-])c(=O)n(C)c3ccc(Br)nc23)CC1 (single isomer, unassigned) [Example 61, 6-bromo-4-(4-((4-fluorophenyl)(2-methoxy-6-methylphenyl)methyl)piperazin-1-yl)-1-methyl-3-nitro-1,5-naphthyridin-2(1H)-one] | 56 | 2200 | 4400 | –
CCc1ccc2c(n1)c(N1CCN(C(c3ccccc3)c3ccccc3)CC1)c(C#N)c(=O)n2C [Example 202, 4-(4-benzhydrylpiperazin-1-yl)-6-ethyl-1-methy-2-oxo-1,2-dihydro-1,5-naphthyridine-3-carbonitrile] | – | 12000 | 31000 | 400
Cn1c(=O)c(C#N)c(N2CCN(Cc3c(O)cccc3F)CC2)c2nc(Cl)ccc21 [Example 280, 6-chloro-4-{4-[(2-fluoro-6-hydroxyphenyl)methyl]piperazin-1-yl}-1-methyl-2-oxo-1,2-dihydro-1,5-naphthyridine-3-carbonitrile] | – | > 240000 | 76 | 92
Cn1c(=O)c(C#N)c(N2CCN(Cc3cccc(Br)c3O)CC2)c2nc(Cl)ccc21 [Example 268, 4-{4-[(3-bromo-2-hydroxyphenyl)methyl]piperazin-1-yl}-6-chloro-1-methyl-2-oxo-1,2-dihydro-1,5-naphthyridine-3-carbonitrile] | – | 120000 | 680 | 51
Cc1ccc(CN2CCN(c3c(C#N)c(=O)n(C)c4ccc(Cl)nc34)CC2)cc1O [Example 328, 6-chloro-4-{4-[(3-hydroxy-4-methylphenyl)methyl]piperazin-1-yl}-1-methyl-2-oxo-1,2-dihydro-1,5-naphthyridine-3-carbonitrile] | – | 120000 | 1000 | 440
Cc1ccc2c(n1)c(N1CCN(Cc3cccc(Br)c3O)CC1)c(C#N)c(=O)n2C [Example 286, 4-{4-[(3-bromo-2-hydroxyphenyl)methyl]piperazin-1-yl}-1,6-dimethyl-2-oxo-1,2-dihydro-1,5-naphthyridine-3-carbonitrile] | – | 140000 | 1200 | 100
COc1ccc(CN2CCN(c3c(C#N)c(=O)n(C)c4ccc(Cl)nc34)CC2)cc1O [Example 353, 6-chloro-4-{4-[(3-hydroxy-4-methoxyphenyl)methyl]piperazin-1-yl}-1-methyl-2-oxo-1,2-dihydro-1,5-naphthyridine-3-carbonitrile] | – | > 240000 | 65 | 1900
Cn1c(=O)c(C#N)c(N2CCN(Cc3ccccc3NC(=O)Nc3ccccc3)CC2)c2nc(Br)ccc21 [Example 214, 1-(2-((4-(6-bromo-3-cyano-1-methyl-2-oxo-1,2-dihydro-1,5-naphthyridin-4-yl)piperazin-1-yl)methyl)phenyl)-3-phenylurea] | – | > 81000 | 3100 | 550
Cn1c(=O)c(C#N)c(N2CCN(Cc3cccc(Cl)c3O)CC2)c2nc(Br)ccc21 [Example 278, 6-bromo-4-{4-[(3-chloro-2-hydroxyphenyl)methyl]piperazin-1-yl}-1-methyl-2-oxo-1,2-dihydro-1,5-naphthyridine-3-carbonitrile] | – | > 81000 | 350 | 87
Cn1c(=O)c(C#N)c(N2CCN(Cc3cccc(O)c3)CC2)c2nc(Cl)ccc21 [Example 351, 6-chloro-4-{4-[(3-hydroxyphenyl)methyl]piperazin-1-yl}-1-methyl-2-oxo-1,2-dihydro-1,5-naphthyridine-3-carbonitrile] | – | 190000 | 360 | 1500
COCCOCCCn1c(=O)c([N+](=O)[O-])c(N2CCN(C(c3ccccc3)c3ccccc3)CC2)c2ncccc21 [Example 189, 4-(4-benzhydrylpiperazin-1-yl)-1-(3-(2-methoxyethoxy)propyl)-3-nitro-1,5-naphthyridin-2(1H)-one] | – | > 240000 | 130000 | 7300
COc1cccc(O)c1CN1CCN(c2c(C#N)c(=O)n(C)c3ccc(Br)nc23)CC1 [Example 314, 6-bromo-4-{4-[(2-hydroxy-6-methoxyphenyl)methyl]piperazin-1-yl}-1-methyl-2-oxo-1,2-dihydro-1,5-naphthyridine-3-carbonitrile] | – | 82000 | 170 | 250
Cn1c(=O)c(C#N)c(N2CCN(C(CO)c3ccc(F)cc3)CC2)c2nc(Br)ccc21 (stereo not drawn) [Example 31, 6-bromo-4-{4-[1-(4-fluorophenyl)-2-hydroxyethyl]piperazin-1-yl}-1-methyl-2-oxo-1,2-dihydro-1,5-naphthyridine-3-carbonitrile] | – | > 240000 | 1200 | 1800
Cc1ccccc1C(c1ccccc1O)N1CCN(c2c([N+](=O)[O-])c(=O)n(C)c3ccc(Br)nc23)CC1 (stereo not drawn) [Example 73, 6-bromo-4-(4-((2-hydroxyphenyl)(o-tolyl)methyl)piperazin-1-yl)-1-methyl-3-nitro-1,5-naphthyridin-2(1H)-one] | – | 2100 | 900 | 26
Cn1c(=O)c(C#N)c(N2CCN(Cc3ccc(OC(F)(F)F)cc3O)CC2)c2nc(C#N)ccc21 [Example 265, 8-(4-{[2-hydroxy-4-(trifluoromethoxy)phenyl]methyl}piperazin-1-yl)-5-methyl-6-oxo-5,6-dihydro-1,5-naphthyridine-2,7-dicarbonitrile] | – | 36000 | 34 | 39
Cn1c(=O)c(C#N)c(N2CCN(Cc3cccc(F)c3F)CC2)c2nc(Cl)ccc21 [Example 330, 6-chloro-4-{4-[(2,3-difluorophenyl)methyl]piperazin-1-yl}-1-methyl-2-oxo-1,2-dihydro-1,5-naphthyridine-3-carbonitrile] | – | > 240000 | 3700 | 500
COc1cccc(CN2CCN(c3c(C#N)c(=O)n(C)c4ccc(Cl)nc34)CC2)c1 [Example 327, 6-chloro-4-{4-[(3-methoxyphenyl)methyl]piperazin-1-yl}-1-methyl-2-oxo-1,2-dihydro-1,5-naphthyridine-3-carbonitrile] | – | 140000 | 660 | 430
Cn1c(=O)c(C#N)c(N2CCN(Cc3ccccc3NC(=O)c3ccccc3)CC2)c2nc(Br)ccc21 [Example 213, N-(2-((4-(6-bromo-3-cyano-1-methyl-2-oxo-1,2-dihydro-1,5-naphthyridin-4-yl)piperazin-1-yl)methyl)phenyl)benzamide] | – | > 240000 | 3100 | 710
Cn1c(=O)c(C#N)c(N2CCN(Cc3ccc(Cl)cc3)CC2)c2nc(Cl)ccc21 [Example 417, 6-chloro-4-{4-[(4-chlorophenyl)methyl]piperazin-1-yl}-1-methyl-2-oxo-1,2-dihydro-1,5-naphthyridine-3-carbonitrile] | – | > 240000 | 250 | 150
Cn1c(=O)c(C#N)c(N2CCN(Cc3cc(Cl)ccc3O)CC2)c2nc(Br)ccc21 [Example 367, 6-bromo-4-{4-[(5-chloro-2-hydroxyphenyl)methyl]piperazin-1-yl}-1-methyl-2-oxo-1,2-dihydro-1,5-naphthyridine-3-carbonitrile] | – | > 240000 | 220 | > 100000
COCCn1c(=O)c([N+](=O)[O-])c(N2CCN(C(c3ccccc3)c3ccccc3)CC2)c2ncccc21 [Example 244, 4-[4-(diphenylmethyl)piperazin-1-yl]-1-(2-methoxyethyl)-3-nitro-1,2-dihydro-1,5-naphthyridin-2-one] | – | > 81000 | 32000 | 690
Cn1c(=O)c(C#N)c(N2CCN(Cc3cc(F)cc(F)c3O)CC2)c2nc(Br)ccc21 [Example 320, 6-bromo-4-{4-[(3,5-difluoro-2-hydroxyphenyl)methyl]piperazin-1-yl}-1-methyl-2-oxo-1,2-dihydro-1,5-naphthyridine-3-carbonitrile] | – | > 240000 | 890 | 300
COc1cccc(O)c1CN1CCN(c2c(C#N)c(=O)n(C)c3ccc(Cl)nc23)CC1 [Example 264, 6-chloro-4-{4-[(2-hydroxy-6-methoxyphenyl)methyl]piperazin-1-yl}-1-methyl-2-oxo-1,2-dihydro-1,5-naphthyridine-3-carbonitrile] | – | > 240000 | 620 | 36
